Each structure is given as a SMILES string.

In series [1] the test system is integrated proviral HIV-1 DNA. Nature of the series: Integrated proviral HIV-1 DNA by Alu-PCR in LC5-RIC cells. The format is cell-based. The note with it: HIV-1LAI, 48 h, concentrations >2x IC90, normalized to DMSO. Here is the method: Quantitative analysis of integrated copies of HIV proviral DNA by Alu-PCR was performed essentially as described in[46]. Briefly, LC5-RIC cells seeded at a density of 100,000 cells per well in 12-well plates and incubated for 24 h were exposed to test compounds and HIV-1LAI virus inoculum at an MOI of 0.5 and incubated for further 48 h at 37 °C, 5% CO2. Subsequently, cells were harvested and genomic DNA (gDNA) was extracted using the QIAamp DNA Mini Kit (QIAGEN) according to the manufacturer’s protocol. The relative amount of integrated proviral HIV-1 DNA was determined by two-step Alu-PCR[46]. The relative amounts of integrated proviral HIV-1 DNA in treated versus untreated samples were calculated by the 2^(−ΔΔCt) method, with ΔCT values representing CT (HIV) - CT (β-globin) for each sample and ΔΔCT values representing values of treated samples normalized to untreated samples.

For series [2], the system named is HIV-1LAI. Nature of the series: EASY-HIT assay: infectious virus production by LC5-RIC reporter cells exposed to HIV-1LAI. The note with it: for Infectious virus production, median (fluorescent signal normalized to untreated virus-exposed cultures): 50 nM, LC5-RIC, secondary plates 72 h after transfer. Type of series: cell-based. Here is the method: To identify natural compounds with anti-HIV activity we screened a collection of 10,000 natural compounds: Anti-HIV activity was evaluated by determining compound effects on infectious virus production by LC5-RIC cells which are highly susceptible for HIV and contain a DsRed1-encoding reporter gene activated by HIV-infection[6]–[8]. For screening, cultures of LC5-RIC reporter cells were first exposed to virus in the presence of the compound (first-step of the assay). Subsequently, supernatants of these cultures were transferred to secondary plates with uninfected LC5-RIC cells. The fluorescent signal of the cultures in the secondary plates served as a measure of compound effects on infectious virus production.
Anti-HIV activities of compounds were profiled in LC5-RIC cells with the EASY-HIT assay as described in[6]. Briefly, LC5-RIC cells were first exposed to virus and compounds (first step of the assay). Compound effects on infectious virus production were determined by transferring aliquots of supernatants of compound-treated cultures to secondary plates and measurement of fluorescent signal intensities in secondary plates after 72 h (second step of the assay). Fluorescent signal intensities determined for compound-treated cultures were normalized to those determined for untreated virus-exposed cultures.

Series [3] has as its system DsRed1 reporter gene activated by early viral gene expression. Nature of the series: DsRed1 reporter gene expression in HIV-exposed LC5-RIC cultures (first step of two-step assay). The format is cell-based, HIV-1. The note with it: 50 nM, 48 h. The arrangement: unit not given here. An excerpt: The reporter gene in LC5-RIC cells contains the HIV promoter and other regulatory elements of HIV expression and is activated by early viral gene expression during HIV infection. Use of LC5-RIC cells in a previously described two-step assay format allows comparison of the effect of compound treatment on expression of the DsRed1 reporter gene and infectious virus production in the same cultures. As reference compound, we used an experimental inhibitor of HIV transcription called Flavopiridol. Flavopiridol blocks pTEFb, an essential co-factor for Tat-dependent activation[18],[19]. […]
Figure 2 Comparison of effects of compound #7 treatment on reporter gene expression and production of infectious virus in LC5-RIC cultures. […] Effects of compound treatment on reporter gene expression and production of infectious virus were determined in LC5-RIC cultures exposed to virus inoculum in the presence or absence of compounds for 48 h. Fluorescent signals of these primary cultures were measured to determine effects on reporter gene expression. Effects on infectious virus production were determined by transferring aliquots of the supernatants of primary cultures to uninfected LC5-RIC cells, and fluorescent signals determined in secondary plates 72 h after transfer. […]

A short description of series [4]: CellTiter-Glo 2.0 cell viability assay in LC5-RIC cells. The format is cell-based. The note with it: human; Table S2; CellTiter-Glo 2.0; mean ± SD. Here is the method:
(§1) The following assays were used to profile cell safety of compound treatment in HIV-exposed cultures (LC5-RIC or PBMC): (1) CellTox^TM Green Cytotoxicity Assay, Promega, measures binding of a fluorescent dye to DNA of cells with impaired membrane integrity; (2) CellTiter-Glo® 2.0 Assay, Promega, which measures the amount of ATP in viable cells after lysis using an assay with luminescence read-out. Cells were plated into black 96-well plates followed by overnight incubation at 37 °C, 5% CO2. Compounds dissolved in DMSO were screened at multiple concentrations from 0.6 to 10,000 nM at a final DMSO concentration of 0.04% followed by additional 48 h incubation. Both assays were performed according to manufacturer’s recommendations and consecutively in the above mentioned order. Cells were washed once with PBS between the assays.
For orientation: In ATP-based viability assays light output follows the ATP content of the culture.

The nature of series [5]: CellTiter-Glo 2.0 cell viability assay in PBMC. The format is cell-based, human. The note with it: human. The protocol: as §1
Series [6] has as its system HIV-1LAI. Nature of the series: Inhibition of HIV infection of human PBMCs (infectious virus production, read out on LC5-RIC cells). Type of series: cell-based. The note with it: mean ± SD. Here is the method: To evaluate anti-HIV efficacies of test compounds in primary human target cells, stimulated PBMCs were seeded in 96-well plates at a density of 500,000 cells per well, different #7concentrations of the compound (serial dilutions) and virus inoculum (MOI of 0.5) added to the PBMCs and cultures incubated for 48 h. Infectious virus production was quantified by transferring 35 µl of supernatant from the PBMC cultures to LC5-RIC cells, seeded in black 96-well plates one day earlier. LC5-RIC cultures were then incubated for 72 h and analysed for DsRed1 reporter expression and anti-HIV activity calculated as described for the EASY-HIT assay.

As for `CN1CC[C@H](c2c(O)cc(O)c3c(=O)cc(-c4ccccc4Cl)oc23)[C@H](O)C1` [Flavopiridol], the “reduction of levels of integrated proviral DNA” value in series [1] is recorded as “did not reveal reduction of proviral DNA levels”. Moreover, in series [2], the “Infectious virus production, median (fluorescent signal normalized to untreated virus-exposed cultures)” value amounted to 10.38. In addition, the IC50 stood at 10.9 ± 0.5 nM in series [2] (Human immunodeficiency virus 1, read-out: Anti-HIV in LC5-RIC, IC50) and 35.6 ± 3.46 nM in series [6] (Human immunodeficiency virus 1, Table S2, PBMC, read-out: Anti-HIV in PBMC, IC50). In addition, the “Reporter gene expression, median (fluorescent signal normalized to untreated virus-exposed cultures)” value in series [3] is 9.33. Besides, the CC50 at 48 h was found to be 127.4 ± 0.94 nM in series [4] and 120 ± 13.5 nM in series [5].

Consider `COc1oc(C2C/C(=C/C(C)=C/c3ccc(C(F)(F)F)cc3)CO2)c(C)c(=O)c1C` (stereo not drawn) [compound #7], for which the “reduction of levels of integrated proviral DNA” value in series [1] is under 20%. The “Infectious virus production, median (fluorescent signal normalized to untreated virus-exposed cultures)” value in series [2] is 0.96. In addition, the IC90 is 13.4 ± 1.75 nM in series [2] (Human immunodeficiency virus 1, read-out: IC90, 90% inhibitory concentration); under 45 nM in series [6] (Human immunodeficiency virus 1, PBMC, read-out: IC90, 90% HIV-inhibitory concentration, human PBMCs exposed to HIV-1LAI); 41 ± 1.23 nM in series [6] (read-out: IC90, 90% HIV-inhibitory concentration, human PBMCs exposed to HIV-1LAI). The IC50 is under 10 nM in series [2] (LC5-RIC cells exposed to HIV-1LAI, infectious virus production, mean ± SD, listed as #7, read-out: IC50, half maximal inhibitory concentration); 4.9 ± 0.16 nM in series [2] (LC5-RIC cells exposed to HIV-1LAI, infectious virus production, mean ± SD, read-out: IC50, half maximal inhibitory concentration); 10.3 ± 0.65 nM in series [6] (Human immunodeficiency virus 1, PBMC, human PBMCs exposed to HIV-1LAI, read-out: IC50, half maximal HIV-inhibitory concentration). Besides, the “Reporter gene expression, median (fluorescent signal normalized to untreated virus-exposed cultures)” value in series [3] is 55.3. The CC50 at 48 h was over 10000 nM in series [4] and over 10000 nM in series [5] (CellTiter-Glo 2.0, PBMC, read-out: Cell viability in PBMC, CC50).
